Target: T1, EGFR LRCS (BaF3-LRCS cell line) (Homo sapiens, UniProt P00533, C797S/L858R)
T1 construct: host or cells: BaF3-LRCS cell line (kept under puromycin selection)
Experiment: HTRF Phospho EGFR LRCS assay (cellular)
Assay type: cell-based
Settings: BaF3-LRCS cells, 4 hours incubation, Phospho-EGFR HTRF readout
Method: HTRF Phospho EGFR LRCS assay (cellular)
BaF3-LRCS cell line were obtained from Crownbio (San Diego, CA, USA). Cells were maintained at 37° C., 5% C02 in RPMI ATCC (Gibco 31870)+2 mM Glutamine+0.5 μg/ml Puromycin supplemented with 10% fetal bovine serum (FBS) (Gibco).
Cells are transferred as above to Greiner Bio-One, Nr. 784-08 micro-titerplate at 20000 cells/well in 12.5 μl of growth medium/well after the plates had been pre-filled with 12.5 nl of DMSO solutions of the to be tested compounds (in dose response) or DMSO only. After spinning the plates at 300×g for 30 seconds the cells were incubated for 4 hours at 37 C, 5% CO2, 95% humidity. The cells were lysed by adding to the compound mix 4 µl/well of the supplemented lysis buffer (Cis-bio, Phospho-EGFR HTRF kit, 64EG1PEH), followed by incubation for 30 min at room temperature with shaking (400 rpm). The plates were then frozen and stored overnight at −80° C. On the next day and after thawing the plates, 4 μl of a mixture of anti-Phospho-EGFR Cryptate and of anti-Phospho-EGFR-d2 antibody solutions prepared in the supplied detection buffer was added to each well. The lidded plates were then incubated for 4 h at room temperature before reading the fluorescence emission at 616 and 665 nm using an Envision reader (Perkin Elmer). Data was analyzed in similar fashion as above using the normalized ratio of the 665 to 616 signals multiplied by 10000.

T1 sequence (P00533 25-1210 C797S/L858R): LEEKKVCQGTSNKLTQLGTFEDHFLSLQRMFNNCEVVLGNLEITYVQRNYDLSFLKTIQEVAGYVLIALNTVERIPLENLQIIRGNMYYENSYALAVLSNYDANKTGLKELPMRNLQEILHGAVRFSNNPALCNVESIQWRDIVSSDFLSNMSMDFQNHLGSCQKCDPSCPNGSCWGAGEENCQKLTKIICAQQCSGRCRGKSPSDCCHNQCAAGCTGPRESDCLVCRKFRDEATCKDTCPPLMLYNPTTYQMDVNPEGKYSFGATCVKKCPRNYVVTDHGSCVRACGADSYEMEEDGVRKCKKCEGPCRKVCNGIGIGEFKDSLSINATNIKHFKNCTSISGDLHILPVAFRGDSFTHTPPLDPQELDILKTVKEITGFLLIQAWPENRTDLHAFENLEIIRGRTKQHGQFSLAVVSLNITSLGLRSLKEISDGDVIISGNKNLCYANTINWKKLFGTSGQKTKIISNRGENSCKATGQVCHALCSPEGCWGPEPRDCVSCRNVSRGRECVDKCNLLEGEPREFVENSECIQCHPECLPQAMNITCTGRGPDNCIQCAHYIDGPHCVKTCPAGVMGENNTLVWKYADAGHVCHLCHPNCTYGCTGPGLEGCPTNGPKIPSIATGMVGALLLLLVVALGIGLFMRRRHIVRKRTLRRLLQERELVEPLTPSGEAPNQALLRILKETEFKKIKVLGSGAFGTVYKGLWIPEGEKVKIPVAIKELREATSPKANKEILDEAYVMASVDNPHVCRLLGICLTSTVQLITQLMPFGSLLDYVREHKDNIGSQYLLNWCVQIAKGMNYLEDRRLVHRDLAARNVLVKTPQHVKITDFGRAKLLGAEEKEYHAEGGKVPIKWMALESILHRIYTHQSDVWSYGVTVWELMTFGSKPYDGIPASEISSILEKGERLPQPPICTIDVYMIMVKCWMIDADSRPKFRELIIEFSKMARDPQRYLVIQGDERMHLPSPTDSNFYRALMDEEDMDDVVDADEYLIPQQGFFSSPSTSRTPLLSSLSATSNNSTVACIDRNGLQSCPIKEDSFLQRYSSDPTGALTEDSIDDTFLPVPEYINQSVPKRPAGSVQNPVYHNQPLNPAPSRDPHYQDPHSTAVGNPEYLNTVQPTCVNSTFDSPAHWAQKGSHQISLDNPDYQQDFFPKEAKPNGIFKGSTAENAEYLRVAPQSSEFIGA

IC50 [nM] | SMILES
20 | Cc1c(-c2ccc(N3CCOCC3)cc2)cc(C(F)F)c2cn(C(C(=O)Nc3nccs3)c3ncn4c3CCC43CC3)nc12 (stereo not drawn) [Example 1, 2-[4-(Difluoromethyl)-7-methyl-6-(4-morpholinophenyl)indazol-2-yl]-2-spiro[6,7-dihydropyrrolo[1,2-c]imidazole-5,1′-cyclopropane]-1-yl-N-thiazol-2-yl-acetamide]
45 | Cc1c(-c2ccc(N3CCOCC3)cc2)cc(C(F)(F)F)c2cn(C(C(=O)Nc3nccs3)c3ncn4c3CCC43CC3)nc12 (stereo not drawn) [Example 2, 2-[7-Methyl-6-(4-morpholinophenyl)-4-(trifluoromethyl)indazol-2-yl]-2-spiro[6,7-dihydropyrrolo[1,2-c]imidazole-5,1′-cyclopropane]-1-yl-N-thiazol-2-yl-acetamide]
45 | Cc1c(-c2ccc(N3CCOCC3)cc2)cc(C(F)(F)F)c2cn(C(C(=O)Nc3nccs3)c3ncn4c3CCC4(C)C)nc12 (stereo not drawn) [Example 3, 2-(5,5-Dimethyl-6,7-dihydropyrrolo[1,2-c]imidazol-1-yl)-2-[7-methyl-6-(4-morpholinophenyl)-4-(trifluoromethyl)indazol-2-yl]-N-thiazol-2-yl-acetamide]

From US20250313565A1, “NEW INDAZOLE DERIVATIVES” (Hoffmann-La Roche Inc., priority 2022, published 2025)
